Measurements reported in patent US10034738B2, “Cardiac tissue constructs and methods of fabrication thereof” (THE GOVERNING COUNCIL OF THE UNIVERSITY OF TORONTO, priority 2012, dated 2018).
Entries after “also recorded” stand apart in the source; their conditions may differ.

Tests used:
cardiac microwire [1] = experiment: Optical mapping of intracellular calcium transients of cardiac microwire (calcium-sensitive dye); type: cell-based, human
Method: (§1) Using drugs of known effects, the cardiac microwire was perturbed and optically mapped their response (transmembrane AP and intracellular calcium transient) using voltage- and calcium-sensitive dyes, respectively.
(§2) Conduction velocity was calculated at each location using activation times of 9 neighbouring sites. Conduction velocity values from all sites were used to calculate the average conduction velocity across the construct surface; minimum and maximum values were also noted. Phase contrast images of microtissue surfaces were taken prior to optical mapping, to correlate tissue architecture geometry with conduction velocity. Concentrations of drugs used applied as indicated. Stock solutions were prepared as recommended by vendors: Epinephrine at 1:1000 (Hospira), Lidocaine at 1:1000 (Hospira), and Verapamil at 1:1000 (Sandoz).

cardiac microwire [2] = experiment: Optical mapping of transmembrane action potentials of cardiac microwire (voltage-sensitive dye); type: cell-based, human; conditions: relative to the baseline
Method: as §1
For optical measurements, microtissues were stained with […] of Di-4-ANEPPS (Invitrogen, Carlsbad Calif.) voltage-sensitive dye for 20 minutes, followed by 3 washouts with fresh warm Tyrode's solution (Sigma-Aldrich) adjusted to pH 7.4. The temperature was kept constant at 37° C. using a block incubator. Dye fluorescence was recorded using a microscope mapping system (Ultima, Scimedia, Tokyo Japan). The system included a CMOS camera with a 1 cm sensor (100×100 pixel) attached to a custom-built microscope using PLAN APO objective and condensing lenses (Leica Microsystems GmbH, Wetzlar Germany), giving a magnification of 1.5×. The spatial resolution was 63 μm/pixel. The fluorescence was excited using a Xenon light source (Moritek Corp. Japan) and a 530 nm green filter (Semrock, Rochester N.Y.) and the emission signal was long pass filtered using a 610 nm red filter. Tissue constructs were point stimulated at 1000-ms cycle length using a bipolar electrode made with 2 fine silver wires (AWG#32) inserted in a large stainless steel needle mounted on a micromanipulator. Spontaneous tissue beating was also recorded, in addition to responses to frequency sweep from 1 to 5 Hz. Local activation times were measured at the peak of dF/dT for each pixel. Activation maps were constructed for a selected beat.
as §2, with “Stock solutions were prepared as recommended by vendors: Epinephrine at 1:1000 (Hospira), Lidocaine at 1:1000 (Hospira), and Verapamil at 1:1000 (Sandoz).” left out

[3] = test system: cardiac tissue constructs; conditions: relative to no-drug control, 15 minutes of incubation at 37 degrees Celsius, increasing concentrations
Method: In the present example, microwells with ramped support structures having retaining structures provided thereon, as described above, were seeded at 0.1×10^6 cells per tissue in 2.0 mg/mL Collagen 1. Tissues remodeled over two weeks along with contractile force as measured using the microcantilevers in the system. After two weeks, tissues were introduced with drugs in 100% DMSO vehicle. Final concentrations applied to tissues were ensured to be less than 0.01% DMSO to ensure non-toxic effects. Concentrations were mixed separately in a 96 well plate and applied to the tissues. Measurements were taken after 15 minutes of incubation with the drug at 37 degrees Celsius.
Videos of approximately 10 seconds were recorded and analyzed offline using ImageJ for each condition. […] Contractile force assays were conducted after the contractile force was plateaued to ensure no changes in contractile force due to tissue remodeling.

[4] = test system: cardiac tissue constructs; experiment: Preliminary growth factor screen, excitation threshold (ET) of cardiac tissue constructs; type: cell-based; conditions: compared to the control condition
Method: Tissue function was established by measuring excitation threshold (ET), the minimum voltage required to pace the tissue simultaneously, and maximum capture rate (MCR), the maximum stimulation rate at which the construct can be induced to beat simultaneously, at 7 days after cell seeding. Tissue constructs or cardiomyocyte aggregates were individually placed between a pair of carbon electrodes in stimulation chambers (autoclaved before use). ET (V/cm) was measured by stimulating the tissue with square pulses of 2 ms pulse width at a frequency of 1 or 2 Hz and gradually increasing the output voltage of the stimulator until >80% of the tissue was beating synchronously with the stimulator output. MCR was measured by setting the output voltage at 12 V, and increasing frequency until >80% of the tissue was no longer synchronously beating with the driving signal. […]
A preliminary screen was also performed in order to determine the maturation effect of growth factors. […] The challenge with higher level functional readouts with in vitro models is that further analyses need to be done to determine the mode of action. In order to determine the mechanism of IGF1 and HRG, other functional parameters as well as molecular readouts over a time course will be investigated.

CNC[C@H](O)c1ccc(O)c(O)c1 [Epinephrine]
rate of calcium transients (cardiac microwire [1]; Epinephrine 0.1 μg/mL supplemented after Verapamil 0.25 μg/mL): increased the rate of calcium transients | AP activation rate (cardiac microwire [2]; Epinephrine 0.1 μg/mL): increased the AP activation rate relative to the baseline | AP activation rate (cardiac microwire [2]; Epinephrine 0.1 μg/mL, listed as epinephrine): increased activation rate

CCN(CC)CC(=O)Nc1c(C)cccc1C [Lidocaine]
AP activation rate (cardiac microwire [2]; increasing concentrations of Lidocaine, 2 μg/mL and 4 μg/mL): reduced and nearly abolished activation; also recorded: decreased the activation rate

CC(C)(C)c1ccc(C(O)CCCN2CCC(C(O)(c3ccccc3)c3ccccc3)CC2)cc1 (stereo not shown) [Terfenadine]
relative contractile force [3]: reduce the contractile force (relative to control) with increasing concentrations

COc1ccc(CCN(C)CCCC(C#N)(c2ccc(OC)c(OC)c2)C(C)C)cc1OC (stereo not shown) [Verapamil]
amplitude of calcium waves (cardiac microwire [1]; Verapamil 0.25 μg/mL, relative to the baseline): reduced the amplitude of calcium waves

IGF1: one of seven growth factors in a preliminary maturation screen
excitation threshold (ET) [4]: reduced ET compared to the control condition
